Results published in US20060057669A1, “Inactive transcription factor tif-ia and uses thereof” (priority 2002, published 2006).

Legend:
HEK293T cells [1] = assay: Trypan blue staining; format: cell-based; details: data not shown
Pol I transcription [2] = assay: In vitro transcription: TIF-IA mutants restoring rDNA transcription of nuclear extract from density-arrested FM3A cells; format: biochemical, murine; details: S633/S649 mutants; 20 and 40 ng
Experimental: (A) Transcriptional activity of TIF-IA mutants in vitro. FLAG-tagged wild-type TIF-IA and the indicated single or double point mutants were overexpressed in HEK293T cells, immunopurified, and 20 and 40 ng were assayed for their capability to restore rDNA transcriptional activity of nuclear extract from density-arrested FM3A cells. The amount and purity of TIF-IA were estimated on silver-stained SDS-polyacrylamide gels and Western blots (data not shown).
(A) Transcriptional activity of TIF-IAS199A and TIF-IAS199D in vitro. FLAG-tagged wild-type TIF-IA and the indicated mutants were immunopurified from HEK293T cells, and 30 and 60 ng were assayed for their capability to restore transcriptional activity of nuclear extract from density-arrested FM3A cells. The amount and purity of TIF-IA were estimated on silver-stained SDS-polyacrylamide gels (data not shown).
(B) Transcriptional activity of TIF-IAS44A in vitro. FLAG-tagged wild-type TIF-IA and the indicated mutant were assayed for their transcriptional activity in vitro.
(§1) Nuclear extracts were prepared from exponentially growing (8×10^5 cells/ml), density-arrested or PD98059-treated (CN Bioscience, Bad Soden, Germany) 40 μM, 0.5 hr) or rapamycin-treated FM3A cells (ATCC, Manassas, USA). 25 μl assays contained 50 ng of template DNA (pMr600/EcoRI), 30 μg nuclear extract proteins and 12 mM Hepes-KOH, [pH8.0], 0.1 mM EDTA, 5 mM MgCl2, 80 mM KCl, 10 mM creatine phosphate, 12% (v/v) glycerol, 0.66 mM each of ATP, GTP and CTP, 0.01 mM UTP and 0.5 μCi [α-^32P]UTP (5000 Ci/mmol). After incubation for 60 min at 30° C., RNA was extracted and analyzed on non-denaturing 5% polyacrylamide gels
TIF-IA was immunopurified from untransfected NIH3T3 cells or from HEK293T cells overexpressing FLAG-tagged TIF-IA. 4×10^6 cells were lysed in 0.8 ml IP buffer (20 mM Tris-HCl [pH 7.4], 200 mM NaCl, 2 mM EDTA, 2 mM EGTA, 1% Triton X-100, 0.5 mM PMSF, 1 μg/ml aprotinin, 5 μg/ml leupeptin and 1 μg/ml pepstatin A), centrifuged at 10,000 g for 30 min, and the supernatants were incubated for 4 hr at 4° C. with either 10 μg anti-TIF-IA antibodies bound to 20 μl protein G-agarose or with anti-FLAG (M2) agarose (Sigma-Aldrich Corp., Missouri, USA). The immunocomplexes were successively washed with buffer AM (20 mM Tris-HCl [pH 8.0], 5 mM MgCl2, 0.1 mM EDTA, 20% glycerol) containing 400 and 100 mM KCl, respectively. The amount and purity of TIF-IA was estimated on silver-stained polyacrylamide gels and similar amounts of bead-bound TIF-IA were used in in vitro transcription assays. GST fusion proteins were expressed in E. coli BL21(DE3) and purified on Glutathione-Sepharose 4B according to the manufacturer's instructions.
To assess the functional relevance of S633 and S649 phosphorylation on transcriptional activity, the respective S→A and S→D single or double point mutants were purified from transfected cells and assayed for their capability to rescue transcription of extracts from density-arrested cells. […] Thus, phosphorylation of TIF-IA at S649 and S633 is required for transcriptional activity.
Phosphorylation of peptide a should inhibit TIF-IA activity, while phosphorylation of peptide b, e.g. S44, should augment TIF-IA activity.

Pol I transcription [3] = assay: In vitro transcription: TIF-IA mutants added to nuclear extract from exponentially growing FM3A cells; format: biochemical, murine; details: 20 and 40 ng added to 15 ug nuclear extract
Experimental: 20 and 40 ng of the indicated TIF-IA mutants were added to 15 ug nuclear extract from exponentially growing FM3A cells and rDNA transcription was assayed.
as §1
Given that phosphorylation of TIF-IA at serine 649 is essential for transcription, excess of TIF-IAS649A should impair Pol I transcription. To test this, we examined the effect of exogenous wild-type and mutant TIF-IA on transcriptional activity of extracts from exponentially growing cells.

HEK293T cells [4] = assay: Quantitative fluorimetric viability assay with calcein-AM; format: cell-based; details: 24, 36, 48 and 60 hr after transfection; 2 μM calcein-AM
Experimental: (B) Quantitative fluorimetric viability assay with calcein-AM. HEK293T cells were transfected with TIF-IA or the indicated point mutants. […] Viable cells were measured 24, 36, 48 and 60 hr after transfection by incubation with […] calcein-AM. The gradual increase in fluorescence intensity was recorded with a fluorescence multi-well plate reader for 20 min with an excitation wavelength of 485 nm and an emission wavelength of 530 nm. The proliferation rate of mock-transfected cells and cells overexpressing TIF-IA is shown at the left. Plots show the accumulation of calcein fluorescence (arbitrary units) against time. Growth rates calculated from linear regression curves are shown at the right. Values are presented as the mean±SD from three independent experiments performed in duplicates.
Conversion of calcein-AM (calcein acetoxymethyl ester, (CN Bioscience GmbH, Bad Soden, Germany) to calcein was used to measure cell proliferation. 12 hr after transfection, HEK293T cells were seeded to 96-well micro-plates at 1×10^4 cells/well. After 24, 36, 48 and 60 hr, cells were washed with PBS, incubated with 2 μM calcein-AM, and the gradual increase in fluorescence intensity within the cells was recorded by a fluorescence multi-well plate reader (CytoFluor Series 4000/TC, PerSeptive Biosystems, (Applied Biosystems, Forster City, USA) for 20 min in 1 min intervals. Excitation wavelength used for measurements of fluorescence was 485 nm with a bandwidth of 20 nm; emission wavelength was 530 nm with a bandwidth of 25 nm. Under the experimental conditions used, there is a direct correlation between the accumulation ratio of intracellular calcein fluorescence and the number of viable cells. The data from three independent experiments were analyzed by Sigmaplot and expressed as the mean±standard deviation. For statistical analysis, student's t test was used. Differences with a P<0.01 were considered statistically significant.
Given the functional significance of ERK/RSK-directed TIF-IA phosphorylation on Pol I transcription, mutations that enhance or abrogate TIF-IA activity may have a positive or negative effect on cell growth. To test this, HEK293T cells were transfected with cDNAs encoding wild-type or mutant TIF-IA which harbor single or double point mutations at S649 and S633. The expression of TIF-IA was estimated on Western blots and the cellular growth rate was measured by calcein-AM staining. Calcein-AM is a non-fluorescent, hydrophobic compound that is rapidly hydrolyzed by intracellular esterases releasing hydrophilic fluorescent calcein. Thus, cellular calcein fluorescence correlates with the amount of viable cells. […] Cells expressing FLAG-tagged wild-type or mutant TIF-IA were stained with FITC-conjugated anti-FLAG antibodies, identified by FACS and cell numbers were calculated by measuring the ratio of stained cells versus an internal standard. […] Conversely, the number of cells expressing TIF-IAS649A was 33% lower than the control. […] Taken together, the results reveal a striking correlation between phosphorylation of TIF-IA at serine 649, cellular rRNA synthetic activity and cell cycle progression.

HEK293T cells [5] = assay: Cell enumeration by dual-parameter flow cytometry; format: cell-based; details: 60 hr after transfection
Experimental: (C) Cell enumeration by flow cytometry. HEK293T cells expressing wild-type TIF-IA or the S649 mutants were harvested 60 hours after transfection, stained with FITC-conjugated anti-FLAG M2 antibodies and analyzed by dual-parameter flow cytometry in a FACScan™ flow cytometer in the presence of CaliBRITE™ calibration beads. 60,000 events were recorded from each sample. The number of cells expressing FLAG-TIF-IA was calculated from the ratio between FITC-positive cells and counted beads.
HEK293T cells were harvested 60 hr after transfection with pcDNA-FLAG-TIF-IA, fixed with 2% paraformaldehyde and permeabilized with 0.1% Triton X-100 in PBS. […] Cell were analyzed with a FACSCan™ flow cytometer in the presence of CaliBRITE™ beads (Becton Dickinson, San Jose, USA). The number of cells expressing FLAG-TIF-IA was calculated from the ratio between FITC-positive cells and counted beads.
Given the functional significance of ERK/RSK-directed TIF-IA phosphorylation on Pol I transcription, mutations that enhance or abrogate TIF-IA activity may have a positive or negative effect on cell growth. […] The expression of TIF-IA was estimated on Western blots and the cellular growth rate was measured by calcein-AM staining. […] Thus, cellular calcein fluorescence correlates with the amount of viable cells. […]

HEK293T cells [6] = assay: Relative DNA content of sorted cells by FACS analysis; format: cell-based
Experimental: HEK293T cells were harvested 60 hr after transfection with pcDNA-FLAG-TIF-IA, fixed with 2% paraformaldehyde and permeabilized with 0.1% Triton X-100 in PBS. Transfected cells were labeled by incubation for 1 hr with 2 μg/ml FITC-conjugated anti-M2 antibodies (Sigma) and subsequently stained with […] propidium iodide (Sigma). Cell were analyzed with a FACSCan™ flow cytometer in the presence of CaliBRITE™ beads (Becton Dickinson, San Jose, USA). The number of cells expressing FLAG-TIF-IA was calculated from the ratio between FITC-positive cells and counted beads.
Given the functional significance of ERK/RSK-directed TIF-IA phosphorylation on Pol I transcription, mutations that enhance or abrogate TIF-IA activity may have a positive or negative effect on cell growth. To test this, HEK293T cells were transfected with cDNAs encoding wild-type or mutant TIF-IA which harbor single or double point mutations at S649 and S633. The expression of TIF-IA was estimated on Western blots and the cellular growth rate was measured by calcein-AM staining. […] Thus, cellular calcein fluorescence correlates with the amount of viable cells. […] Cells expressing FLAG-tagged wild-type or mutant TIF-IA were stained with FITC-conjugated anti-FLAG antibodies, identified by FACS and cell numbers were calculated by measuring the ratio of stained cells versus an internal standard. […]

| Substance | cell viability as cause of growth inhibition (HEK293T cells [1]) | capability to rescue transcription of extracts from density-arrested cells (Pol I transcription [2]) | effect on transcriptional activity of extracts from exponentially growing cells (Pol I transcription [3]) | cellular growth rate by calcein-AM staining (HEK293T cells [4]) | number of cells higher compared to cells overexpressing wild-type TIF-IA (HEK293T cells [5]) [%] | increase of G2/M-phase cells (HEK293T cells [6]) [%] |
| --- | --- | --- | --- | --- | --- | --- |
| TIF-IAS633AS649D: printed once in b155, probably a misprint of TIF-IAS633AS649A | not due to decreased cell viability | – | – | – | – | – |
| TIF-IAS649D: TIF-IA point mutant, serine 649 replaced by aspartic acid | – | activated Pol I transcription to a similar or even higher level compared to wild-type TIF-IA | enhanced Pol I transcription | accelerated cell growth | 43 | 50 |
